Test results as given in patent EP4775582A1, “MACROCYCLIC COMPOUND AND ANTIBODY-DRUG CONJUGATE THEREOF” (Genfleet Therapeutics (Shanghai) Inc., priority 2023, dated 2025).
Values after ≈ are worked out from the molar mass of the structure shown.

Key:
H441 p-ERK = test: Cell p-ERK assay (HTRF), NCI-H441 cells; type: cell-based, human; settings: Homo sapiens; NCI-H441 cells (KRAS G12V), 3 h incubation
Procedure, shortened: (§1)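 Phospho-ERK (T202/Y204) was measured by HTRF in lysates after 3 h compound treatment at 37 °C. Cells had been plated the previous day at 20000 per well for NCI-H441 and 10000 per well for AsPC-1. Four-parameter dose-response fitting of % inhibition gave IC50 values.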

AsPC-1 p-ERK = test: Cell p-ERK assay (HTRF), AsPC-1 cells; type: cell-based, human; settings: Homo sapiens, ASPC1, 3 h, read-out: AsPC-1 p-ERK IC50(nM)
Procedure, shortened: as §1

NCI-H441 cells = test: 3D cell proliferation assay (CellTiter Glo-3D), NCI-H441; type: cell-based, human; settings: Homo sapiens, 120 h, NCI-H441 cells (KRAS G12V), 2% FBS, 5 days, read-out: H441 AP IC50
Procedure, shortened: (§2)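 IC50 values come from four-parameter fits of inhibition rate against log compound concentration, using CellTiter-Glo luminescence read after 5 days' exposure. AsPC-1 and NCI-H441 were plated at 800 cells per well in low-serum (2% FBS) medium. Compound was dosed the day after seeding, with incubation at 37 °C, 5% CO2.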

AsPC-1 cells = test: 3D cell proliferation assay (CellTiter Glo-3D), AsPC-1; type: cell-based, human; settings: Homo sapiens, ASPC1, 120 h, read-out: AsPC-1 AP IC50(nM)
Procedure, shortened: as §2

[1] = Solubility experiment (HPLC, external standard); type: physicochemical; settings: 37 °C, 24 h; for solubility at 24 h: ph 7.4 medium, pH 7.4, pH 7.4 medium; for Solubility at pH 7.4 (µg/mL): pH 7.4 medium
Protocol: This experiment was intended to determine the solubility of the compounds in media at different pH values. The materials used in the experiment included: a pH 1.2 medium, a pH 4.5 medium, a pH 7.4 medium, and a diluent (acetonitrile/water = 50/50). 1. The preparation methods for media are as follows:
One centrifuge tube (containing about 2 mg of the test sample) was taken, 1 mL of DMSO was added to completely dissolve the test sample, and the mixture was marked as stock-1. 0.2 mL of stock-1 was transferred into a 10 mL volumetric flask, and then the 50:50 (acetonitrile/water) solution was added to bring the volume to the mark, so as to give a control solution.
Additionally, centrifuge tubes each containing about 1 mg of the test sample were taken, 1 mL of the corresponding medium solution was then added, and the tubes were shaken on a 37 °C water bath shaker for 24 h. After centrifugation for 3 times (centrifugation time: 10 min, rotation speed: 12000 rpm), 0.2 mL of the supernatants were taken, 0.8 mL of the diluent (acetonitrile/water = 50/50) was added to each tube, and the mixtures were vortexed and mixed well to give solubility samples.
The solubility samples described above and the control solution were sequentially analyzed by high performance liquid chromatography. The chromatographic conditions are as follows:
The actual concentration of the compound in each solubility sample was calculated according to an external standard method. Concentration (μg/mL) = (ASample × CControl × DSample)/(AControl)∗1000; [formula] Asample: the peak area of the target peak in the sample solution; Ccontrol: the concentration (mg/mL) of the control solution; Dsample: the dilution factor of the sample solution; Acontrol: the peak area of the target peak in the control solution.

Row | Compound | IC50 (H441 p-ERK) [nM] | IC50 (AsPC-1 p-ERK) [nM] | IC50 (NCI-H441 cells) [nM] | IC50 (AsPC-1 cells) [nM] | solubility at 24 h [1] [µg/mL] | Solubility at pH 7.4 (µg/mL) ([1]; 1440 min) | Solubility at pH 7.4 (µg/mL) [1] [µg/mL]
1 | CO[C@@H](C)c1ncc(C#CCN2CCS(=O)(=O)CC2)cc1-c1c2c3cc(ccc3n1CCCO)-c1csc(n1)C[C@H](NC(=O)[C@H]1[C@@H]3COC[C@@H]31)C(=O)N1CCC[C@H](N1)C(=O)OCC(C)(C)C2 (atropisomer, axis not shown; (Ra)) [Compound Z24-1, (1R,5S,6r)-N-((6^3S,4S,Z)-1^2-(5-(3-(1,1-dioxidothiomorpholino)prop-1-yn-1-yl)-(Ra)-2-((S)-1-methoxyethyl)-pyridin-3-yl)-1^1-(3-hydroxypropyl)-10,10-dimethyl-5,7-dioxo-6^1,6^2,6^3,6^4,6^5,6^6-hexahydro-1^1H-8-oxa-2(4,2)-thiazola-1(5,3)-indola-6(1,3)-pyridazinacycloundecaphane-4-yl)-3-oxabicyclo[3.1.0]hexane-6-carboxamide] | 3.76 | 2.64 | 1.77 | 1.73 | 12.3 (≈ 13.1 µM) | – | –
2 | COCCn1c(-c2cc(C#CCN3CCN(C(=O)CO)CC3)cnc2[C@H](C)OC)c2c3cc(ccc31)-c1csc(n1)C[C@H](NC(=O)[C@H]1[C@@H]3COC[C@@H]31)C(=O)N1CCC[C@H](N1)C(=O)OCC(C)(C)C2 (atropisomer, axis not shown; (Sa)) [Compound Z31-2, (1R,5S,6r)-N-((6^3S,4S,Z)-(Sa)-1^2-(5-(3-(4-(2-hydroxyacetyl)piperazin-1-yl)prop-1-yn-1-yl)-2-((S)-1-methoxyethyl)pyridin-3-yl)-1^1-(methoxyethyl)-10,10-dimethyl-5,7-dioxo-6^1,6^2,6^3,6^4,6^5,6^6-hexahydro-1^1H-8-oxa-2(4,2)-thiazola-1(5,3)-indola-6(1,3)-pyridazinacycloundecaphane-4-yl)-3-oxabicyclo[3.1.0]hexane-6-carboxamide] | – | – | – | – | 22 (≈ 23.1 µM) | – | –
3 | COCCn1c(-c2cc(C#CCN3CCN(C(=O)CO)CC3)cnc2[C@H](C)OC)c2c3cc(ccc31)-c1csc(n1)C[C@H](NC(=O)[C@H]1[C@H](C)[C@@H]1C)C(=O)N1CCC[C@H](N1)C(=O)OCC(C)(C)C2 (atropisomer, axis not shown; (Ra)) [Compound Z63-1, (2R,3S)-N-((6^3S,4S,Z)-1^2-(5-(3-(4-(2-hydroxyacetyl)piperazin-1-yl)prop-1-yn-1-yl)-(Ra)-2-((S)-1-methoxyethyl)pyridin-3-yl)-1'-(2-methoxyethyl)-10,10-dimethyl-5,7-dioxo-6^1,6^2,6^3,6^4,6^5,6^6-hexahydro-1^1H-8-oxa-2(4,2)-thiazola-1(5,3)-indola-6(1,3)-pyridazinacycloundecaphane-4-yl)-2,3-dimethylcyclopropane-1-carboxamide] | 0.55 | 0.61 | 0.32 | 0.36 | – | 7.53 | –
4 | CCn1c(-c2cc(C#CCN3CCS(=O)(=O)CC3)cnc2[C@H](C)OC)c2c3cc(ccc31)-c1csc(n1)C[C@H](NC(=O)[C@@H](N)C1CCC1)C(=O)N1CCC[C@H](N1)C(=O)OCC(C)(C)C2 (atropisomer, axis not shown; (Ra)) [Compound Z16, (2S)-2-amino-2-cyclobutyl-N-((6^3S,4S,Z)-(Ra)-1^2-(5-(3-(1,1-dioxidothiomorpholino)prop-1-yn-1-yl)-2-((S)-1-methoxyethyl)pyridin-3-yl)-1^1-ethyl-10,10-dimethyl-5,7-dioxo-6^1,6^2,6^3,6^4,6^5,6^6-hexahydro-1^1H-8-oxa-2(4,2)-thiazola-1(5,3)-indola-6(1,3)-pyridazinacycloundecaphane-4-yl)acetamide] | 1.14 | 1.67 | – | – | 15 (≈ 16.4 µM) | – | –
5 | CCn1c(-c2cc(C#CCN3CCC(C#N)(CO)CC3)c[n+]([O-])c2[C@H](C)OC)c2c3cc(ccc31)-c1csc(n1)C[C@H](NC(=O)[C@H]1[C@H](C)[C@@H]1C)C(=O)N1CCC[C@H](N1)C(=O)OCC(C)(C)C2 (atropisomer, axis not shown; (Sa)) [Compound Z45-2, 5-(3-(4-cyano-4-(hydroxymethyl)piperidin-1-yl)prop-1-yn-1-yl)-(Sa)-3-((6^3S,4S,Z)-4-((1r,2R,3S)-2,3-dimethylcyclopropane-1-carboxamido)-1^1-ethyl-10,10-dimethyl-5,7-dioxo-6^1,6^2,6^3,6^4,6^5,6^6-hexahydro-1^1H-8-oxa-2(4,2)-thiazola-1(5,3)-indola-6(1,3)-pyridazinacycloundecaphane-1^2-yl)-2-((S)-1-methoxyethyl)pyridine 1-oxide] | – | – | – | – | – | 8.42 | –
6 | COCCn1c(-c2cc(C#CCN3CCN(C(=O)CO)CC3)c[n+]([O-])c2[C@H](C)OC)c2c3cc(ccc31)-c1csc(n1)C[C@H](NC(=O)[C@H]1[C@@H]3COC[C@@H]31)C(=O)N1CCC[C@H](N1)C(=O)OCC(C)(C)C2 (atropisomer, axis not shown; (Sa)) [Compound Z38-2, (Sa)-3-((6^3S,4S,Z)-4-((1R,5S,6r)-3-oxabicyclo[3.1.0]hexane-6-carboxamido)-1^1-(2-methoxyethyl)-10,10-dimethyl-5,7-dioxo-6^1,6^2,6^3,6^4,6^5,6^6-hexahydro-11H-8-oxa-2(4,2)-thiazola-1(5,3)-indola-6(1,3)-pyridazinacycloundecaphane-1^2-yl)-5-(3-(4-(2-hydroxyacetyl)piperazin-1-yl)prop-1-yn-1-yl)-2-((S)-1-methoxyethyl)pyridine-1-oxide] | – | – | – | – | 176 (≈ 182 µM) | – | –
7 | CCn1c(-c2cc(C#CCN3CCS(=N)(=O)CC3)cnc2[C@H](C)OC)c2c3cc(ccc31)-c1csc(n1)C[C@H](NC(=O)[C@H]1[C@@H]3COC[C@@H]31)C(=O)N1CCC[C@H](N1)C(=O)OCC(C)(C)C2 (atropisomer, axis not shown; (Ra)) [Compound Z27] | 0.64 | 0.51 | 0.44 | 0.78 | 20.8 (≈ 22.8 µM) | – | –
8 | CCn1c(-c2cc(C#CCN3CCS(=O)(=O)CC3)cnc2[C@H](C)NC)c2c3cc(ccc31)-c1csc(n1)C[C@H](NC(=O)[C@H]1[C@H](C)[C@@H]1C)C(=O)N1CCC[C@H](N1)C(=O)OCC(C)(C)C2 (atropisomer, axis not shown; (Sa)) [Compound Z66-1, (1r,2R,3S)-N-((6^3S,4S,Z)-(Sa)-1^2-(5-(3-(1,1-dioxidothiomorpholino)prop-1-yn-1-yl)-2-((S)-1-(methylamino)ethyl)pyridin-3-yl)-11-ethyl-10,10-dimethyl-5,7-dioxo-6^1,6^2,6^3,6^4,6^5,6^6-hexahydro-1^1H-8-oxa-2(4,2)-thiazola-1(5,3)-indola-6(1,3)-pyridazinacycloundecaphane-4-yl)-2,3-dimethylcyclopropane-1-carboxamide] | – | – | – | – | – | – | 158.5
9 | COCCn1c(-c2cc(C#CCN3CCN(C(=O)CO)CC3)cnc2[C@H](C)OC)c2c3cc(ccc31)-c1csc(n1)C[C@H](NC(=O)[C@H]1[C@H](C)[C@@H]1C)C(=O)N1CCC[C@H](N1)C(=O)OCC(C)(C)C2 (atropisomer, axis not shown; (Sa)) [Compound Z63-2, (2R,3S)-N-((6^3S,4S,Z)-1^2-(5-(3-(4-(2-hydroxyacetyl)piperazin-1-yl)prop-1-yn-1-yl)-(Sa)-2-((S)-1-methoxyethyl)pyridin-3-yl)-1^1-(2-methoxyethyl)-10,10-dimethyl-5,7-dioxo-6^1,6^2,6^3,6^4,6^5,6^6-hexahydro-1^1H-8-oxa-2(4,2)-thiazola-1(5,3)-indola-6(1,3)-pyridazinacycloundecaphane-4-yl)-2,3-dimethylcyclopropane-1-carboxamide] | – | – | – | – | – | 15.37 | –
